According to patent US8410152B2 (Max-Planck-Gesellschaft zur Forderung der Wissenschaften e. …, priority 2006, dated 2013):

Experiments:
tau construct K19 = tau construct K19 (Homo sapiens, UniProt P10636); experiment: Thioflavine S (ThS) assay for aggregation of tau; type: biochemical; details: 10 μM tau construct K19, 2.5 μM heparin, ThS fluorescence; for DC50: read-out: DC50; for IC50: over night at 37° C., read-out: ID50 (the source's name)
Method: Thioflavine S (ThS) Assay for aggregation of tau: 10 μM of the tau construct K19 were incubated with compounds in a concentration range from 1 nM up to 200 μM in the presence of 2.5 μM heparin in 50 mM NH4Ac buffer over night at 37° C. After addition of 20 μM ThS the signal was measured at 521 nm (emission) at an excitation wavelength of 440 nm. The results of this assay are presented in the IC50 column and DC50 column of Table 1 below.

uninduced N2A cells = type: cell-based; details: cell death as percent of LDH released into medium vs total LDH, compound 10 μM
Method: Neurotoxicity assay: Neurotoxicity was assessed using an LDH (lactate dehydrogenase) assay kit (Roche, Mannheim, Germany) according to the manufacturer's specifications. In the viability assay the aggregation inhibitor compound was added at a final concentration of 10 μM to uninduced N2A cells. The activity of LDH was measured spectrophotometrically at 492 nm. Cell death was calculated as percent of LDH released into medium, compared to total LDH obtained after total cell lysis.

Chain of tau construct K19 (P10636 with tags, fused parts or gaps isoform P10636-2 limits assumed): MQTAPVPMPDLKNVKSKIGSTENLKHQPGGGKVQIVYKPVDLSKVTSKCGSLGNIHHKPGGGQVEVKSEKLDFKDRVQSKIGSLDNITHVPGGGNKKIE

SMILES	DC50 (tau construct K19)	IC50 (tau construct K19)	LDH (uninduced N2A cells)
COc1cccc(-c2csc(NNC(=O)c3ccc(Cl)cc3)n2)c1 [Comp. 27, 4-chloro-N′-[4-(3-methoxyphenyl)-1,3-thiazol-2-yl]benzohydrazide]	> 200 µM	59.2 µM	42.1%
O=C(NNc1nc(-c2ccc(Br)cc2)cs1)c1ccco1 [Comp. 28, N′-[4-(4-bromophenyl)-1,3-thiazol-2-yl]-2-furohydrazide]	2 µM	60.9 µM	3.8%
O=C(NNc1nc(-c2ccc(Br)cc2)cs1)Nc1ccccc1 [Comp. 30, 2-[4-(4-bromophenyl)-1,3-thiazol-2-yl]-N-phenylhydrazinecarboxamide]	> 200 µM	146 µM	6.4%
O=C(NNc1nc(-c2ccc(F)cc2)cs1)c1ccc(Cl)cc1 [Comp. 31, 4-chloro-N′-[4-(4-fluorophenyl)-1,3-thiazol-2-yl]benzohydrazide]	> 200 µM	184 µM	56.1%
O=C(NNc1nc(-c2cc3ccccc3oc2=O)cs1)c1ccc2c(c1)OCO2 [Comp. 33, N′-[4-(2-oxo-2H-chromen-3-yl)-1,3-thiazol-2-yl]-1,3-benzodioxole-5-carbohydrazide]	> 200 µM	> 200 µM	2.0%
O=C(NNc1nc(-c2ccc(Br)cc2)cs1)c1ccc2c(c1)OCO2 [Comp. 38, N′-[4-(4-bromophenyl)-1,3-thiazol-2-yl]-1,3-benzodioxole-5-carbohydrazide]	> 200 µM	> 200 µM	4.6%
O=C(NNc1nc(-c2ccccc2)cs1)c1ccc2ccccc2c1 [Comp. 42, N′-(4-phenyl-1,3-thiazol-2-yl)-2-naphthohydrazide]	16.4 µM	> 200 µM	8.2%
O=C(NNc1nc(-c2ccccc2)cs1)c1ccc2c(c1)OCO2 [Comp. 45, N′-(4-phenyl-1,3-thiazol-2-yl)-1,3-benzodioxole-5-carbohydrazide]	> 200 µM	> 200 µM	22.6%
CC(C)(C)c1csc(NNC(=O)c2ccc(Cl)cc2)n1 [Comp. 48, N′-(4-tert-butyl-1,3-thiazol-2-yl)-4-chlorobenzohydrazide]	> 200 µM	> 200 µM	48.1%
Cc1nc(NNC(=O)c2ccc(-c3ccccc3)cc2)sc1-c1ccc(Br)cc1 [Comp. 64, N′-[5-(4-bromophenyl)-4-methyl-1,3-thiazol-2-yl]-1,1′-biphenyl-4-carbohydrazide]	–	> 200 µM	8.9%
O=C(NNc1nc(-c2ccc(N3CCCC3)cc2)cs1)c1ccc(F)nc1 [Comp. 75, 6-fluoro-N′-[4-(4-pyrrolidin-1-ylphenyl)-1,3-thiazol-2-yl]nicotinohydrazide]	44.6 µM	42.1 µM	12.2%

The next lines start with results.

DC50 (tau construct K19)	IC50 (tau construct K19)	SMILES	LDH (uninduced N2A cells)
> 200 µM	146 µM	O=C(NNc1nc(-c2cccs2)cs1)c1ccc(Cl)cc1 [Comp. 29, 4-chloro-N′-(4-thien-2-yl-1,3-thiazol-2-yl)benzohydrazide]	3.8%
> 200 µM	195 µM	Cc1sc(NNC(=O)c2ccc(F)cc2)nc1-c1ccccc1 [Comp. 32, 4-fluoro-N′-(5-methyl-4-phenyl-1,3-thiazol-2-yl)benzohydrazide]	18.4%
> 200 µM	> 200 µM	O=C(NNc1nc(-c2ccccc2)cs1)c1ccc(F)cc1 [Comp. 34, 4-fluoro-N′-(4-phenyl-1,3-thiazol-2-yl)benzohydrazide]	2.6%
> 200 µM	> 200 µM	COc1cccc(-c2csc(NNC(=O)c3ccncc3)n2)c1 [Comp. 35, N′-[4-(3-methoxyphenyl)-1,3-thiazol-2-yl]isonicotinohydrazide]	3.2%
> 200 µM	> 200 µM	O=C(CCc1ccccc1)NNc1nc(-c2ccc(Br)cc2)cs1 [Comp. 36, N′-[4-(4-bromophenyl)-1,3-thiazol-2-yl]-3-phenylpropanohydrazide]	3.3%
> 200 µM	> 200 µM	O=C(NNc1nc(-c2ccccc2)cs1)c1ccc(-c2ccccc2)cc1 [Comp. 37, N′-(4-phenyl-1,3-thiazol-2-yl)-1,1′-biphenyl-4-carbohydrazide]	3.6%
> 200 µM	> 200 µM	O=C(NNc1nc(-c2ccc(Br)cc2)cs1)c1ccc(-c2ccccc2)cc1 [Comp. 39, N′-[4-(4-bromophenyl)-1,3-thiazol-2-yl]-1,1′-biphenyl-4-carbohydrazide]	4.9%
> 200 µM	> 200 µM	O=C(NNc1nc(-c2ccc(Br)cc2)cs1)c1ccc(F)cc1 [Comp. 40, N′-[4-(4-bromophenyl)-1,3-thiazol-2-yl]-4-fluorobenzohydrazide]	4.9%
127 µM	> 200 µM	O=C(NNc1nc(-c2ccccc2)cs1)c1ccccc1F [Comp. 41, 2-fluoro-N′-(4-phenyl-1,3-thiazol-2-yl)benzohydrazide]	6.5%
31.7 µM	> 200 µM	O=C(NNc1nc(-c2ccc(Br)cc2)cs1)c1ccc2[nH]cnc2c1 [Comp. 43, N′-[4-(4-bromophenyl)-1,3-thiazol-2-yl]-1H-benzimidazole-5-carbohydrazide]	11.5%
> 200 µM	> 200 µM	O=C(NNc1nc2c(s1)Cc1ccccc1-2)c1ccc2c(c1)OCO2 [Comp. 44, N′-8H-indeno[1,2-d][1,3]thiazol-2-yl-1,3-benzodioxole-5-carbohydrazide]	18.8%
> 200 µM	> 200 µM	O=C(NNc1nc(-c2cc3ccccc3oc2=O)cs1)c1ccc(-c2ccccc2)cc1 [Comp. 47, N′-[4-(2-oxo-2H-chromen-3-yl)-1,3-thiazol-2-yl]-1,1′-biphenyl-4-carbohydrazide]	44.7%
